According to patent US20150160193A1, “TUMOR CELL ISOLATION/PURIFICATION PROCESS AND METHODS FOR USE THEREOF” (DIATECH ONCOLOGY, priority 2012, published 2015):
Where two headings read alike, the source gives them in different places. *1 amine or outer side, *2 acyl side, *3 side chain or, on linkers, in order; H or OH if unused. Where a SMILES comes first, the peptide text is derived from it. Bridges are numbered along the chain shown (N, C = ends). Roman numbers before positions name the chains, in order. [ ]: non-standard residue; d: D form. Actinocin(9to1) = Cc1c2oc3c(C)ccc(C(=O)[*:1])c3nc-2c(C(=O)[*:2])c(N)c1=O; NMeV = CN[C@H](C(=O)O)C(C)C; Sar = CNCC(=O)O

Columns and labels:
[1] = tested on: neoplastic cells collected from spleen and abdominal tumor biopsy specimens; test: MiCK assay, patient specific cancer cell testing (Example 10); format: cell-based, human; conditions: for efficacy for this patient, in words: single agents
Method: The experiments were conducted on neoplastic cells collected from spleen and abdominal tumor biopsy specimens from a person. The tumor specimens were of an unknown primary. The experiment consisted of using a MiCK assay, according to the present disclosure, to test the effectiveness of 37 potential anti-cancer drugs, combinations of these drugs, and various concentrations of these drugs.
Apoptotic readings greater than 5.0KU in the MiCK assay are considered to be highly sensitive and are associated with a good clinical response. […] It should be noted that the alkylating agents cyclophosphamide and ifosfamide require hepatic metabolic transformation to their active metabolite, 4HC and 4HI respectively, and therefore cannot be tested directly in vitro. For the MiCK assay their active metabolites, 4HC and 4HI respectively were used.

[2] = tested on: Purified breast cancer cells from 67 patient (Pt) biopsies; test: MiCK assay of drug-induced apoptosis, breast cancer specimens; format: cell-based, human; conditions: for % >1: share of samples with KU >1; for % >3: share of samples with KU >3; for Mean Difference (95% CI) of KU vs Carbo: drug minus Carbo; for Mean Difference (95% CI) of KU vs Mitox: drug minus Mitox; for Mean Difference (95% CI) of KU vs Doxo: paired t-test, drug minus Doxo
Method: Apoptosis(KU)=(VmaxDrug Candidate Treated−VmaxControl)×60×X/(ODcontrol−ODblank)
Within 24 to 48 hours of collection, the specimen was minced, digested with 0.25% trypsin and 0.08% DNase for 1-2 hours at 37 C.°, and then filtered through a 100 micrometer cell strainer. When necessary, non-viable cells were removed by density gradient centrifugation. The cell suspension was then incubated for 30 min at 37° C. in a tissue culture flask to remove macrophages by adherence. For epithelial tumors lymphocytes were removed by 30 minute incubation with CD2 antibody conjugated magnetic beads for T lymphocytes and CD19 antibody conjugated magnetic beads for B lymphocytes. Remaining macrophages were removed, if necessary, using CD14 antibody conjugated magnetic beads. The final cell suspension was plated into a 96-well half-area plate, 120 microliter aliquot per well. The plate was incubated overnight at 37° C. with 5% carbon dioxide humidified atmosphere. 5×10^4 to 1.5×10^5 cells were seeded per well depending on the cell volume to give adequate well-bottom coverage.
Within 24 to 48 hours of collection, the specimen was treated as follows in order to purify and isolate cells from solid tumors: • Take the specimen out of the transport tube. • Put in a petri dish in 13 ml of PBS+high concentration of antibiotics (200 units/ml Penicillin+200 μg/ml streptomycin) and take measurements and picture of the specimen. […] In that case, one may make the determination to do a “pre-filtration” using sterile gauze over a 50 ml tube. Then proceed with the cell strainer filtration process referenced above. • Centrifuge the filtered cell suspension 1500 RPM 5 min • Discard the supernatant. To the pellet, add 5 ml of red blood cell lysis solution (standard NH4Cl containing lysis solution: Nh4Cl0.15M+KHCO3 10 mM+EDTA-4Na 0.1 mM, pH 7.2), incubate 2-3 min and add 5 ml of RPMI 10% FBS. • Centrifuge 5 min 1500 RPM. Resuspend the pellet in RPMI 10% FBS (1-10 ml depending on the pellet size). • Collect the second fraction in the enzyme and repeat the steps above. • Check the viability of all fractions and pool. Do a cytospin stain with Wright Giemsa to verify the cell content of the population. NOTE: this is done numerous times during the process of purification. • 3) When necessary, non-viable cells were removed by density gradient centrifugation. • Density gradient centrifugation (optiprep): first layer=2 ml cells+4.45 ml optiprep 40% in RPMI, second layer=optiprep 22.5% in RPMI, 3rd layer=0.5 ml of RPMI. Centrifuge at 2000 RPM for 20 min • Collect the viable cell layer, add 10 ml of RPMI 10% FBS, centrifuge at 1500 RPM for 5 min • Resuspend the pellet in RPMI 10% FBS (volume depends on the pellet size and on the next step required). • If mucin is present in the specimen: resuspend the pellet in 10 ml of PBS+20 mM DTT and incubate at 4° C. for 30 min to disintegrate the mucin. Wash with RPMI 1500 rpm for 5 min Resuspend the pellet in RPMI 10% FBS. • If the specimen is highly necrotic with presence of debris: Percoll 20% in HBSS, centrifuge at 800×g for 10 min • 4) The cell suspension was then incubated for 20 min at 37° C. in a tissue culture flask to remove macrophages by adherence. • The size and quantity of the flask and the volume used depends on the amount of cells.

[3] = person, tumor of unknown primary, maximum apoptotic response over the concentrations tested
[4] = KU compared per patient, % of 13 patients
[5] = kinetic units of apoptosis, mean over N patient samples (at least 9 per drug)
[6] = kinetic units of apoptosis, median over N patient samples
[7] = KU compared per patient, % of 24 patients
[8] = person, tumor of unknown primary
[9] = KU compared per patient, % of 34 patients

| Molecule | Max Resp. (KU) [1, 3] [KU] | KU Mean [2, 5] [KU] | KU Median [2, 6] [KU] | further results |
| --- | --- | --- | --- | --- |
| O=c1[nH]cc(F)c(=O)[nH]1 [5FU, 5-fluorouracil] | 0.3 | 0.7 | 0.6 | 5fu > Xeloda + 0.57 [2, 4]: 2/13 (15%) |
| Nc1nc2[nH]cc(CCc3ccc(C(=O)N[C@@H](CCC(=O)O)C(=O)O)cc3)c2c(=O)[nH]1 [Alimta, pemetrexed] | 0.6 |  |  |  |
| O=NN(CCCl)C(=O)NC1CCCCC1 [CCNU] | 0.8 |  |  |  |
| N.N.O=C([O-])C1(C(=O)[O-])CCC1.[Pt+2] [Carbo, Carboplatin] | 6.0 | 1.6 | 1.6 | Carbo = Cisplatin +/− 0.57 and both > 1 [2, 7]: (17%); Carbo > Cisplatin by more than 0.57 and Carbo > 1 [2, 7]: (8%); Cisplatin and Carbo both < 1 [2, 7]: (17%); % >1 [2]: 67%; % >3 [2]: 13% |
| N.N.[Cl][Pt][Cl] [Cisplatin] |  | 2.2 | 2.3 | efficacy for this patient, in words [1, 8]: single drug with the most efficacy; Cisplatin > Carbo + 0.57 [2, 7]: (58%); Mean Difference (95% CI) of KU vs Carbo ([2]; patient pairwise comparison): 0.88 KU; Mean Difference (95% CI) of KU vs Carbo ([2]; patient pairwise comparison, listed as cisplatin): APOP>carboplatin; Mean Difference (95% CI) of KU vs Oxali ([2]; patient pairwise comparison, drug minus Oxali): 0.33 KU; % >1 [2]: 78%; % >3 [2]: 22% |
| O=P1(N(CCCl)CCCl)NCCCO1 (centres unmarked) [Cytoxan, cyclophosphamide] | 8.4 |  |  | efficacy for this patient, in words [1, 8]: highly effective results; Cytox = Ifosf +/− 0.57 and both > 1 [2]: (55%); Cytox > Ifosf by more than 0.57 and Cytox > 1 [2]: (18%); Cytox and Ifosf both < 1 [2]: (27%); KU Mean [2]: 2.8 KU; KU Median [2]: 2.6 KU; Mean Difference (95% CI) of KU vs Ifosphamide [2]: 0.34 (−0.07 to 0.76) KU |
| CN(C)/N=N/c1[nH]cnc1C(N)=O [Dacarbazine] | 0.6 |  |  |  |
| Cc1c2oc3c(C)ccc(C(=O)N[C@@H]4C(=O)N[C@H](C(C)C)C(=O)N5CCC[C@H]5C(=O)N(C)CC(=O)N(C)[C@@H](C(C)C)C(=O)O[C@@H]4C)c3nc-2c(C(=O)N[C@@H]2C(=O)N[C@H](C(C)C)C(=O)N3CCC[C@H]3C(=O)N(C)CC(=O)N(C)[C@@H](C(C)C)C(=O)O[C@@H]2C)c(N)c1=O [Dactinomycin] (I: T[dV]P[Sar][NMeV] / II: T[dV]P[Sar][NMeV]; ester I:1-I:C, II:1-II:C; linker I:N-II:N via Actinocin(9to1)) | 4.0 |  |  |  |
| COc1cccc2c1C(=O)c1c(O)c3c(c(O)c1C2=O)C[C@@](O)(C(C)=O)C[C@@H]3O[C@H]1C[C@H](N)[C@H](O)[C@H](C)O1 [Danorubicin, Daunorubicin] | 3.1 |  |  |  |
| COc1cccc2c1C(=O)c1c(O)c3c(c(O)c1C2=O)C[C@@](O)(C(=O)CO)C[C@@H]3O[C@H]1C[C@H](N)[C@H](O)[C@H](C)O1 [Doxo, doxorubicin] | 3.5 | 1.9 | 1.6 | Doxo > Doxil + 0.57 ([2]; KU compared per patient, % of 9 patients): 4/9 (44%); Doxo > Epi + 0.57 [2, 9]: 3/34 (9%); Mean Difference (95% CI) of KU vs Doxil ([2]; patient pairwise comparison, drug minus Doxil): 0.56 (−0.07 to 1.18) KU; Mean Difference (95% CI) of KU vs Mitox ([2]; patient pairwise comparison): 0.63 KU |
| COc1cccc2c1C(=O)c1c(O)c3c(c(O)c1C2=O)C[C@@](O)(C(=O)CO)C[C@@H]3O[C@H]1C[C@H](N)[C@@H](O)[C@H](C)O1 [Epi, Epirubicin] | 3.8 | 2.5 | 2.1 | Doxo and Epi < 1 [2, 9]: 1/34 (3%); Epi = Doxo +/− 0.57 and both > 1 [2, 9]: 22/34 (65%); Epi > Doxo by more than 0.57 and Epi > 1 [2, 9]: 6/34 (18%); Mean Difference (95% CI) of KU vs Mitox ([2]; patient pairwise comparison): 0.83 KU; Mean Difference (95% CI) of KU vs Doxo ([2]; patient pairwise comparison): 0.37 KU; Mean Difference (95% CI) of KU vs Doxo ([2]; patient pairwise comparison, listed as epirubicin): APOP>doxorubicin |
| C=C1C[C@@H]2CC[C@@]34C[C@H]5O[C@H]6[C@@H](O3)[C@H]3O[C@H](CC[C@@H]3O[C@H]6[C@H]5O4)CC(=O)C[C@@H]3[C@@H](OC)[C@@H](C[C@H](O)CN)O[C@H]3C[C@H]3O[C@@H](CC[C@@H]1O2)C[C@@H](C)C3=C [Eribulin, eribulin] |  | 1.0 | 1.0 |  |
| COc1cc([C@@H]2c3cc4c(cc3[C@@H](O[C@@H]3O[C@@H]5CO[C@@H](C)O[C@H]5[C@H](O)[C@H]3O)[C@H]3COC(=O)[C@H]23)OCO4)cc(OC)c1O [Etoposide, etoposide] | 0.8 | 1.3 | 1.3 |  |
| Nc1ccn([C@@H]2O[C@H](CO)[C@@H](O)C2(F)F)c(=O)n1 [Gemzar, gemcitabine] | 0.8 | 1.0 | 0.8 |  |
| Cc1ccc(NC(=O)c2ccc(CN3CCN(C)CC3)cc2)cc1Nc1nccc(-c2cccnc2)n1 [Gleevec (imatinib), imatinib] | 1.5 |  |  |  |
| O=P1(NCCCl)OCCCN1CCCl (centres unmarked) [Ifosfamide, ifosfamide] | 2.6 | 1.7 | 1.5 | Ifosf > Cytox + 0.57 ([2]; KU compared per patient, % of 11 patients): (0%) |
| CCc1c2c(nc3ccc(OC(=O)N4CCC(N5CCCCC5)CC4)cc13)-c1cc3c(c(=O)n1C2)COC(=O)[C@]3(O)CC [Irinotecan] | 2.6 |  |  |  |
| C/C(=C\c1csc(C)n1)[C@@H]1C[C@@H]2O[C@]2(C)CCC[C@H](C)[C@H](O)[C@@H](C)C(=O)C(C)(C)[C@@H](O)CC(=O)N1 [Ixabepilone, ixabepilone] |  | 1.3 | 1.2 |  |
| N[C@@H](Cc1ccc(N(CCCl)CCCl)cc1)C(=O)O [Melphalan] | 5.3 |  |  |  |
| CN(Cc1cnc2nc(N)nc(N)c2n1)c1ccc(C(=O)N[C@@H](CCC(=O)O)C(=O)O)cc1 [Methotrexate, methotrexate] | 0.8 | 0.9 | 0.9 |  |
| O=C1c2c(O)ccc(O)c2C(=O)c2c(NCCNCCO)ccc(NCCNCCO)c21 [Mitox, mitoxantrone] |  | 1.2 | 1.2 |  |
| CNNCc1ccc(C(=O)NC(C)C)cc1 [Procarbazine] | 1.3 |  |  |  |
| CNC(=O)c1cc(Oc2ccc(NC(=O)Nc3ccc(Cl)c(C(F)(F)F)c3)cc2)ccn1 [Sorafenib] | 3.8 |  |  |  |
| CCN(CC)CCNC(=O)c1c(C)[nH]c(/C=C2\C(=O)Nc3ccc(F)cc32)c1C [Sunifinib, Sunitinib] | 7.9 |  |  |  |
| C#Cc1cccc(Nc2ncnc3cc(OCCOC)c(OCCOC)cc23)c1 [Tarceva] | 0.7 |  |  |  |
| Cn1nnc2c(C(N)=O)ncn2c1=O [Temozolomide] | 1.5 |  |  |  |
| CC(C)C[C@H](NC(=O)[C@H](Cc1ccccc1)NC(=O)c1cnccn1)B(O)O [Velcade] | 3.8 |  |  |  |
| Nc1ncn([C@@H]2O[C@H](CO)[C@@H](O)[C@H]2O)c(=O)n1 [Vidaza] | 4.3 |  |  |  |
| CCCCCOC(=O)Nc1nc(=O)n([C@@H]2O[C@H](C)[C@@H](O)[C@H]2O)cc1F [Xeloda, capcitabine] |  | 0.7 | 0.7 | 5fu and Xeloda < 1 [2, 4]: 8/13 (62%); Xeloda = 5fu +/− 0.57 and both > 1 [2, 4]: 0/13 (0%); Xeloda > 5fu by more than 0.57 and Xeloda > 1 [2, 4]: 2/13 (15%); Mean Difference (95% CI) of KU vs 5FU ([2]; patient pairwise comparison, drug minus 5FU): 0.26 (−0.26 to 0.77) KU |
| Bleomycin |  |  |  | Max Resp. (KU) [1]: 1.1 KU |
